Experimental data published in patent publication US11413348B2, “Low molecular weight cationic lipids for oligonucleotide delivery” (SIRNA THERAPEUTICS, INC., priority 2010, dated 2022).

Legend:
[1] = Rat in vivo evaluation of toxicity (serum ALT and AST); details: ApoB siRNA RDV, tail vein, 24 hours after dosing, FIG. 2
Experimental: Six hours post dose, food is removed from the cages. Animal necropsy is performed 24 hours after LNP dosing. Rats are anesthetized under isoflurane for 5 minutes, then maintained under anesthesia by placing them in nose cones continuing the delivery of isoflurane until ex-sanguination is completed. Blood is collected from the vena cava using a 23 gauge butterfly venipuncture set and aliquoted to serum separator vacutainers for serum chemistry analysis. Punches of the excised caudate liver lobe are taken and placed in RNALater (Ambion) for mRNA analysis. Preserved liver tissue was homogenized and total RNA isolated using a Qiagen bead mill and the Qiagen miRNA-Easy RNA isolation kit following the manufacturer's instructions. Liver ApoB mRNA levels were determined by quantitative RT-PCR. Message was amplified from purified RNA utilizing a rat ApoB commercial probe set (Applied Biosystems Cat #RN01499054_m1). The PCR reaction was performed on an ABI 7500 instrument with a 96-well Fast Block. The ApoB mRNA level is normalized to the housekeeping PPIB (NM 011149) mRNA. PPIB mRNA levels were determined by RT-PCR using a commercial probe set (Applied Biosytems Cat. No. Mm00478295_m1). Results are expressed as a ratio of ApoB mRNA/PPIB mRNA. All mRNA data is expressed relative to the PBS control dose. […]

β-catenin mRNA = experiment: TRE-MET HCC mouse pharmacodynamic study (β-catenin mRNA by Taqman in liver and tumor); type: in vivo; details: intravenous, 72 hours; for knockdown of β-catenin mRNA in both liver and tumor tissues: FIGS. 8, 9, 12, 13
Experimental: The activity LNPs in delivering a β-catenin siRNA (siRNAβ-cat) to hepatocellular carcinoma was evaluated in a mouse hepatocellular carcinoma (HCC) model, named TRE-MET. TRE-MET mice are transgenic mice in an FVB/N genetic background where the human MET transgene is expressed under an hCMV promoter with hepatamerized upstream tet-operators. When TRE-MET mice are crossed with the LAP-tTA line, the double transgenic (TRE-MET/LAP-tTA) mice express MET in a liver-specific manner which can be suppressed by administration of doxycycline. These mice develop HCC at 3 months of age with visually identifiable tumor nodules on the liver surface and the tumors display a diffuse trabecular growth pattern typical for HCC and express the HCC tumor marker alpha-fetoprotein (AFP). In addition, the mutation analysis in the tumor of TRE-MET mice has also identified activating mutations in the beta-catenin gene in approximately 95% of tumors. These features make the TRE-MET HCC mouse model suitable for evaluating LNP-mediated delivery of β-catenin siRNA and the resultant efficacy on tumor growth.
The effect of β-catenin containing LNPs in silencing β-catenin mRNA in both liver and tumor tissues was first evaluated in a pharmacodynamic (PD) study in TRE-MET mice bearing tumors. Different doses of LNPs or a high dose of LNPcontrol siRNA were intravenously administered and 72 hours later, necropsy was performed to collect liver and tumor tissues for the determination of β-catenin mRNA levels by Taqman. […] The KD in tumors ranges from 70% (2 mpk) to about 40% (0.1 or 0.05 mpk).

Row | Compound | tolerability (serum ALT and AST) compared with RDV containing DLinKC2DMA (Compound 45) or MC3 (Compound 46) [1] | β-catenin mRNA KD in normal liver (β-catenin mRNA; 0.05 mpk) [%] | β-catenin mRNA KD in normal liver (β-catenin mRNA; 0.1 mpk) [%] | β-catenin mRNA KD in tumors (β-catenin mRNA; 0.1 or 0.05 mpk) | β-catenin mRNA KD in tumors (β-catenin mRNA; 0.25 mpk) [%] | knockdown of β-catenin mRNA in both liver and tumor tissues (β-catenin mRNA) | β-catenin mRNA KD in tumors (β-catenin mRNA; 2 mpk) [%]
1 | CCCCC/C=C\C/C=C\CCCCCCCCCC(CCCCCCCCC)CCN(C)C (stereo not drawn) [Compound 32, (13Z,16Z)—N,N-dimethyl-3-nonyldocosa-13,16-dien-1-amine] | improved tolerability | 78 | 76 | 20-30% | 47 | robust and dose-dependent knockdown | 
2 | CCCCCCCCCC(CCCCCCCC1CC1CCCCCCCC)N(C)C [Compound 33, N,N-dimethyl-1-[(1S,2R)-2-octylcyclopropyl]hepladecan-8-amine] | improved tolerability | 69 | 88 | about 40% |  | robust and dose-dependent knockdown | 70
